# Patent publication US9096524B2, “Anthelmintic agents and their use” (Intervet International B.V., priority 2009, dated 2015)
# Test system: A. galli (intestinal roundworm of chicken) larval stage 3; O. dentatum (nodular worm of swine) larval stages 3 and 4
# Experiment: Activity against Ascaridia galli and Oesophagostomum dentatum larvae in vitro (minimum effective concentration)
# Type: cell-based
# Conditions: in vitro; one or more of A. galli L3, O. dentatum L3, L4; threshold 1 μM; read-out: MEC (minimum effective concentration) against one or more of the tested nematodes
row,SMILES,minimal effective concentration
1,O=C(CC(=O)N1CCN(c2cccc(OC(F)(F)F)c2)CC1)N1CCC(Nc2ccc([N+](=O)[O-])c(C(F)(F)F)c2)CC1 [Example 210],< 1 µM
2,O=C(CCN1CCC(c2cccc(C(F)(F)F)c2)CC1)N1CCC(Nc2ccc([N+](=O)[O-])c(C(F)(F)F)c2)CC1 [Example 212],< 1 µM
3,O=C(CCC1CCN(c2cccc(C(F)(F)F)c2)CC1)N1CCC(Nc2ccc([N+](=O)[O-])c(C(F)(F)F)c2)CC1 [Example 215],< 1 µM
4,O=C(CCC1CCN(c2ccccc2)CC1)N1CCC(Nc2ccc([N+](=O)[O-])c(C(F)(F)F)c2)CC1 [Example 216],< 1 µM
5,CC(C)(C)c1ccc(N2CCN(CCCC(=O)N3CCC(Oc4ccc([N+](=O)[O-])c(C(F)(F)F)c4)CC3)CC2)cc1 [Example 258],< 1 µM
6,O=C(CCCN1CCN(c2ccc(Cl)cc2)CC1)N1CCC(Oc2ccc([N+](=O)[O-])c(C(F)(F)F)c2)CC1 [Example 259],< 1 µM
7,O=C(CCCN1CCN(c2ccc(F)cc2)CC1)N1CCC(Oc2ccc([N+](=O)[O-])c(C(F)(F)F)c2)CC1 [Example 261],< 1 µM
8,O=C(CCN1CCN(c2ccc(C(F)(F)F)cc2)CC1)N1CC[C@H](Nc2ccc([N+](=O)[O-])c(C(F)(F)F)c2)C1 [Example 285],< 1 µM
9,COc1ccc(N2CCN(CCC(=O)N3CC[C@H](Nc4ccc([N+](=O)[O-])c(C(F)(F)F)c4)C3)CC2)cc1 [Example 289],< 1 µM
10,CCCCC(=O)N1CCC(OCC(=O)N2CCC(Nc3ccc([N+](=O)[O-])c(C(F)(F)F)c3)CC2)CC1 [Example 291],< 1 µM
11,CC(C)(C)c1ccc(N2CCN(CCC(=O)N3CCC(Nc4ccc(C(F)(F)F)cn4)CC3)CC2)cc1 [Example 329],< 1 µM
12,CCOC(=O)c1ccc(NC2CCN(C(=O)CCCN3CCN(c4ccc(Cl)cc4)CC3)CC2)cc1 [Example 338],< 1 µM
13,CC(C)(C)c1ccc(N2CCN(CCC(=O)N3CCC(Nc4ccc(S(C)(=O)=O)c(C(F)(F)F)c4)CC3)CC2)cc1 [Example 340],< 1 µM
14,CS(=O)(=O)c1ccc(NC2CCN(C(=O)CCN3CCN(c4ccc(Cl)cc4)CC3)CC2)cc1C(F)(F)F [Example 341],< 1 µM
15,CS(=O)(=O)c1ccc(NC2CCN(C(=O)CCCN3CCN(c4ccc(Cl)cc4)CC3)CC2)cc1C(F)(F)F [Example 343],< 1 µM
16,CC(C)(C)c1ccc(N2CCN(CCC(=O)N3CCC(Nc4cccc(C#N)c4)CC3)CC2)cc1 [Example 351],< 1 µM
17,O=C(CCCN1CCN(c2ccc(Cl)cc2)CC1)N1CCC(Nc2ccc(Cl)c(SC(F)(F)F)c2)CC1 [Example 359],< 1 µM
18,COc1cc(NC2CCN(C(=O)CCN3CCC(c4ccc(Oc5ccccc5)cc4)CC3)CC2)ccc1[N+](=O)[O-] [Example 376],< 1 µM

# Same assay, conditions: in vitro; one or more of A. galli L3, O. dentatum L3, L4; threshold 7 μM; read-out: MEC (minimum effective concentration) against one or more of the tested nematodes
row,SMILES,minimal effective concentration
1,CN(C)S(=O)(=O)c1ccc(NC2CCN(C(=O)CCCN3CCN(c4ccc(Cl)cc4)CC3)CC2)cc1C(F)(F)F [Example 349],< 7 µM
2,O=C(CCN1CCN(c2ccc(F)cc2F)CC1)N1CCC(Nc2ccc([N+](=O)[O-])c(C(F)(F)F)c2)CC1 [Example 370],< 7 µM

# Same assay, conditions: in vitro; two or more of A. galli L3, O. dentatum L3, L4; threshold 1 μM; read-out: MEC (minimum effective concentration) against two or more of the tested nematodes
row,SMILES,minimal effective concentration
1,CC(C)(C)c1ccc(N2CCN(C(=O)CC(=O)N3CCC(Nc4ccc([N+](=O)[O-])c(C(F)(F)F)c4)CC3)CC2)cc1 [Example 203],< 1 µM
2,O=C(CCC1CCN(c2cccc(C(F)(F)F)c2)CC1)N1CCC(Nc2ccc([N+](=O)[O-])c(C(F)(F)F)c2)CC1 [Example 215],< 1 µM
3,O=C(CCC1CCN(c2ccccc2)CC1)N1CCC(Nc2ccc([N+](=O)[O-])c(C(F)(F)F)c2)CC1 [Example 216],< 1 µM
4,O=C(CCN1CCN(c2ccc(Cl)c(C(F)(F)F)c2)CC1)N1CCC(Oc2ccc([N+](=O)[O-])c(C(F)(F)F)c2)CC1 [Example 218],< 1 µM
5,CC(C)(C)c1ccc(N2CCN(CCC(=O)N3CCC(Oc4ccc([N+](=O)[O-])c(C(F)(F)F)c4)CC3)CC2)cc1 [Example 220],< 1 µM
6,O=C(CCN1CCN(c2cccc(OC(F)(F)F)c2)CC1)N1CCC(Oc2ccc([N+](=O)[O-])c(C(F)(F)F)c2)CC1 [Example 225],< 1 µM
7,O=C([C@@H]1CCC[C@H](C(=O)N2CCC(Nc3ccc([N+](=O)[O-])c(C(F)(F)F)c3)CC2)C1)N1CCN(c2ccccc2)CC1 [Example 227],< 1 µM
8,O=C(C1CCC[C@H](C(=O)N2CCN(c3ccccc3)CC2)C1)N1CCC(Oc2ccc([N+](=O)[O-])c(C(F)(F)F)c2)CC1 (stereo partly drawn) [Example 228],< 1 µM
9,O=C(CCN1CCN(C2CCCCC2)CC1)N1CCC(Nc2ccc([N+](=O)[O-])c(C(F)(F)F)c2)CC1 [Example 241],< 1 µM
10,Cc1ccc(N2CCN(CCS(=O)(=O)N3CCC(Nc4ccc([N+](=O)[O-])c(C(F)(F)F)c4)CC3)CC2)cc1 [Example 243],< 1 µM
11,O=[N+]([O-])c1ccc(NC2CCN(S(=O)(=O)CCN3CCN(c4ccc(C(F)(F)F)cc4)CC3)CC2)cc1C(F)(F)F [Example 245],< 1 µM
12,O=[N+]([O-])c1ccc(NC2CCN(S(=O)(=O)CCN3CCN(C4CCCCC4)CC3)CC2)cc1C(F)(F)F [Example 248],< 1 µM
13,COc1ccc(N2CCN(CCC(=O)N3CCC(Nc4ccc([N+](=O)[O-])c(C(F)(F)F)c4)CC3)CC2)cc1 [Example 254],< 1 µM
14,O=C(CCN1CCN(c2ccc(C(F)(F)F)cn2)CC1)N1CCC(Nc2ccc([N+](=O)[O-])c(C(F)(F)F)c2)CC1 [Example 255],< 1 µM
15,O=C(CCCN1CCN(c2ccc(C(F)(F)F)cc2)CC1)N1CCC(Nc2ccc(C(F)(F)F)cc2)CC1 [Example 269],< 1 µM
16,COc1ccc(NC2CCN(C(=O)CCCN3CCN(c4ccc(C(F)(F)F)cc4)CC3)CC2)cc1 [Example 270],< 1 µM
17,O=C(CCN1CCN(c2ccc(C(F)(F)F)cc2)CC1)N1CCC(Nc2cccc(C(F)(F)F)c2)CC1 [Example 276],< 1 µM
18,N#Cc1ccc(NC2CCN(C(=O)CCN3CCN(c4ccc(C(F)(F)F)cc4)CC3)CC2)cc1 [Example 283],< 1 µM
19,COc1ccc(N2CCN(CCC(=O)N3CC[C@H](Nc4ccc([N+](=O)[O-])c(C(F)(F)F)c4)C3)CC2)cc1 [Example 289],< 1 µM
20,CC(C)(C)c1ccc(N2CCN(CCC(=O)N3CCC(Nc4ccc(S(=O)(=O)c5ccc(F)cc5)cc4)CC3)CC2)cc1 [Example 294],< 1 µM
21,C[S+]([O-])c1ccc(NC2CCN(C(=O)CCN3CCN(c4ccc(C(C)(C)C)cc4)CC3)CC2)cc1C(F)(F)F (stereo not drawn) [Example 299],< 1 µM
22,CS(=O)(=O)c1ccc(NC2CCN(C(=O)CCN3CCN(c4ccc(Cl)cc4)CC3)CC2)cc1C(F)(F)F [Example 341],< 1 µM
23,CN(C)S(=O)(=O)c1ccc(NC2CCN(C(=O)CCN3CCN(c4ccc(Cl)cc4)CC3)CC2)cc1C(F)(F)F [Example 346],< 1 µM
24,COc1ccc(N2CCN(CCC(=O)N3CCC(Nc4ccc([N+](=O)[O-])c(C(F)(F)F)c4)CC3)CC2)cc1OC [Example 368],< 1 µM

# Same assay, conditions: read-out: MEC (minimum effective concentration) against two or more of the tested nematodes, in vitro; two or more of A. galli L3, O. dentatum L3, L4; threshold 1 μM
row,SMILES,minimal effective concentration
1,O=C(CCCN1CCN(c2ccc(C(F)(F)F)cc2)CC1)N1CCC(Nc2ccc(Cl)c(Cl)c2)CC1 [Example 272],< 1 µM
2,O=C(CCCN1CCN(c2ccc(C(F)(F)F)cc2)CC1)N1CCC(Nc2ccc(Cl)cc2)CC1 [Example 273],< 1 µM
3,O=C(CCN1CCN(c2ccc(C(F)(F)F)cc2)CC1)N1CCC(Nc2ccc(Cl)cc2)CC1 [Example 282],< 1 µM
4,CSc1ccc(NC2CCN(C(=O)CCCN3CCN(c4ccc(C(C)(C)C)cc4)CC3)CC2)cc1C(F)(F)F [Example 317],< 1 µM
